Measurements reported in patent publication US20160046570A1, “N-ACYLOXYSULFONAMIDE AND N-HYDROXY-N-ACYLSULFONAMIDE DERIVATIVES” (The Johns Hopkins University, priority 2009, published 2016).

Experiments:
esterase = experiment: HNO production via N2O quantification (GC headspace), PBS buffer pH 7.4 with added esterase; assay type: in vitro ADME; details: pH 7.4 with 2-4 mg added esterase, 37° C. under argon, relative to Angeli's salt, N2O measured at 1 hr
Protocol: (§1) Nitrous oxide is produced via the dimerization and dehydration of HNO, and is the most common marker for HNO production (Fukuto, J. M. et al., Chem. Res. Toxicol. 2005, 18, 790-801).
(§2) The ability of compounds to donate HNO is assessed. N2O results are reported relative to Angeli's salt. All decompositions are carried out at 37° C. under argon.

[1] = HNO production via N2O quantification (GC headspace), PBS buffer pH 7.4; assay type: physicochemical; details: pH 7.4, 37° C. under argon, relative to Angeli's salt
Protocol: as §1, §2

Row | Compound | % N2O esterase (esterase) | % N2O pH 7.4 ([1]; N2O measured at 5 hr) | % N2O pH 7.4 ([1]; no measurement time printed) [%]
1 | CC(=O)ONS(=O)(=O)c1ccccc1Br [Compound 2, N-(acetyloxy)-2-bromobenzenesulfonamide] | 53 (1 hr) % | <3 (5 hr) % | 
2 | CC(C)(C)C(=O)N(O)S(=O)(=O)c1c(Cl)cccc1Cl [Compound 16, N-hydroxy-N-trimethylacetyl-2,6-dichlorobenzenesulfonamide] |  |  | 41
3 | O=C(c1ccccc1)N(O)S(=O)(=O)c1ccccc1 [Compound 15, N-hydroxy-N-benzoyl- benzenesulfonamide] |  |  | 19
4 | CC(=O)ONS(=O)(=O)c1c(Cl)cccc1Cl [Compound 3, N-acetyloxy-2,6-dichlorobenzenesulfonamide] | 56 (1 hr) % | <3 (5 hr) % | 
